Laboratory results published in patent US20230355597A1, “COMPOUNDS, COMPOSITIONS, AND METHODS FOR THE TREATMENT AND PREVENTION OF AVIAN PATHOGENIC E. COLI (APEC)” (OHIO STATE INNOVATION FOUNDATION, priority 2018, published 2023).
In brackets after ≈: the same amount, converted by molar mass. Read-outs that look alike come from different tables or passages of the source. Marks after values point to notes of the source that are not given here.

Key:
[1] = test system: APEC O109; test: Antimicrobial susceptibility profile, CAMHB micro-dilution (CLSI); type: cell-based, avian pathogenic Escherichia coli (APEC); settings: (R) = resistant
[2] = test system: APEC O15; test: as above; type: cell-based, avian pathogenic Escherichia coli (APEC); settings: (R) = resistant
[3] = test system: APEC O1; test: as above; type: cell-based, avian pathogenic Escherichia coli (APEC); settings: (R) = resistant
[4] = test system: APEC O78-53; test: as above; type: cell-based, avian pathogenic Escherichia coli (APEC); settings: APEC O78-53, CAMHB micro-dilution; (R) = resistant
[5] = test system: APEC O8; test: as above; type: cell-based, avian pathogenic Escherichia coli (APEC); settings: (R) = resistant
[6] = test system: APEC O2; test: as above; type: cell-based, avian pathogenic Escherichia coli (APEC); settings: (R) = resistant
[7] = test system: APEC O35; test: as above; type: cell-based, avian pathogenic Escherichia coli (APEC); settings: (R) = resistant
[8] = test system: APEC O1-63; test: as above; type: cell-based, avian pathogenic Escherichia coli (APEC); settings: APEC O1-63, CAMHB micro-dilution; (R) = resistant
[9] = test system: APEC O2-211; test: as above; type: cell-based, avian pathogenic Escherichia coli (APEC); settings: APEC O2-211, CAMHB micro-dilution; (R) = resistant
[10] = test system: APEC O78; test: as above; type: cell-based, avian pathogenic Escherichia coli (APEC); settings: (R) = resistant
[11] = test system: APEC O18; test: as above; type: cell-based, avian pathogenic Escherichia coli (APEC); settings: (R) = resistant
[12] = test system: APEC O115; test: as above; type: cell-based, avian pathogenic Escherichia coli (APEC); settings: (R) = resistant
[13] = test system: APEC O35; type: cell-based, avian pathogenic Escherichia coli (APEC); settings: APEC O35, M63 media; MIC/MBC
[14] = test system: intracellular APEC O1 in Caco-2 cells; test: Intracellular survival assay (cidal SMs); settings: O1, Caco-2, 6 h treatment; superscript = multiple of MIC
[15] = test system: APEC O2; type: cell-based, avian pathogenic Escherichia coli (APEC); settings: APEC O2, M63 media; MIC/MBC
[16] = test system: Shiga toxin-producing (STEC) O157 and O26 strains; type: cell-based, E. coli; settings: 100 µM, M63 media
[17] = test system: intracellular APEC O78 in THP-1 cells; test: Intracellular survival assay (cidal SMs); settings: O78, THP-1, 6 h treatment; superscript = multiple of MIC
[18] = test system: APEC O18; type: cell-based, avian pathogenic Escherichia coli (APEC); settings: APEC O18, M63 media; MIC/MBC
[19] = test system: intracellular APEC O1 in THP-1 cells; test: Intracellular survival assay (cidal SMs); settings: O1, THP-1, 6 h treatment; superscript = multiple of MIC
[20] = test system: intracellular APEC O2 in Caco-2 cells; test: Intracellular survival assay (cidal SMs); settings: O2, Caco-2, 6 h treatment; superscript = multiple of MIC
[21] = test system: APEC O8; type: cell-based, avian pathogenic Escherichia coli (APEC); settings: APEC O8, M63 media; MIC/MBC
[22] = test system: intracellular APEC O1 in HD11 cells; test: Intracellular survival assay (cidal SMs); settings: O1, HD11, 6 h treatment; superscript = multiple of MIC
[23] = test system: APEC O78; type: cell-based, avian pathogenic Escherichia coli (APEC); settings: for MIC / MBC: APEC O78, M63 media
[24] = test system: APEC O115; type: cell-based, avian pathogenic Escherichia coli (APEC); settings: APEC O115, M63 media; MIC/MBC
[25] = test system: biofilm embedded APEC O78; test: MBEC High-throughput assay; type: cell-based, avian pathogenic Escherichia coli (APEC); settings: biofilm embedded APEC O78; superscript = multiple of MIC (footnote)
[26] = test system: Rif^r APEC O78; test: In vivo efficacy of growth inhibitors in APEC infected broiler chickens
[27] = test system: intracellular APEC O2 in HD11 cells; test: Intracellular survival assay (cidal SMs); settings: O2, HD11, 6 h treatment; superscript = multiple of MIC
[28] = test system: APEC O78; test: Confocal microscopy bacterial cytological profiling; type: cell-based, avian pathogenic Escherichia coli (APEC); settings: 2X MBC
Experimental: Confocal and scanning electron microscopy. Confocal microscopy was used for bacterial cytological profiling (BCP) to identify the cellular pathways targeted by SMs as described previously. […] After incubation, treated cultures were centrifuged, washed, and resuspended in 100 μL PBS. […] Cultures were then centrifuged, washed, and resuspended in PBS to 1⁄10th volume of the original cultures.

[29] = test system: APEC O2-211; type: cell-based, avian pathogenic Escherichia coli (APEC); settings: APEC O2-211, M63 media; MIC/MBC
[30] = test system: intracellular APEC O2 in THP-1 cells; test: Intracellular survival assay (cidal SMs); settings: O2, THP-1, 6 h treatment; superscript = multiple of MIC
[31] = test system: APEC O78; test: Loss of 260/280 nm absorbing materials assay; type: cell-based, avian pathogenic Escherichia coli (APEC); settings: 2X MBC, 1 h, *P<0.05 vs DMSO; for Absorbance 260: 260 nm absorbing material in supernatant; for Absorbance 280: 280 nm absorbing material in supernatant
[32] = test system: APEC O109; type: cell-based, avian pathogenic Escherichia coli (APEC); settings: APEC O109, M63 media; MIC/MBC
[33] = test system: APEC O78-53; type: cell-based, avian pathogenic Escherichia coli (APEC); settings: APEC O78-53, M63 media; MIC/MBC
[34] = test system: APEC O1; type: cell-based, avian pathogenic Escherichia coli (APEC); settings: APEC O1, M63 media; MIC/MBC
[35] = test system: intracellular APEC O78 in HD11 cells; test: Intracellular survival assay (cidal SMs); settings: O78, HD11, 6 h treatment; superscript = multiple of MIC
[36] = test system: APEC O1-63; type: cell-based, avian pathogenic Escherichia coli (APEC); settings: APEC O1-63, M63 media; MIC/MBC
[37] = test system: intracellular APEC O78 in Caco-2 cells; test: Intracellular survival assay (cidal SMs); settings: O78, Caco-2, 6 h treatment; superscript = multiple of MIC
[38] = test system: APEC O15; type: cell-based, avian pathogenic Escherichia coli (APEC); settings: APEC O15, M63 media; MIC/MBC
[39] = Pilot experiment in chickens; type: in vivo, chicken

## CC1(C)S[C@@H]2[C@H](NC(=O)[C@H](N)c3ccccc3)C(=O)N2[C@H]1C(=O)O [Ampicillin]
[1]
  MIC: >64 (R) µg/mL
[2]
  MIC: 2 µg/mL (≈ 5.72 µM)
[3]
  MIC: >64 (R) µg/mL
[4]
  MIC: 4 µg/mL (≈ 11.4 µM)
[5]
  MIC: 4 µg/mL (≈ 11.4 µM)
[6]
  MIC: >64 (R) µg/mL
[7]
  MIC: 2 µg/mL (≈ 5.72 µM)
[8]
  MIC: 4 µg/mL (≈ 11.4 µM)
[9]
  MIC: 4 µg/mL (≈ 11.4 µM)
[10]
  MIC: >64 (R) µg/mL
[11]
  MIC: 4 µg/mL (≈ 11.4 µM)
[12]
  MIC: >64 (R) µg/mL

## COc1cc(CNCCc2ccc3ccccc3c2)ccc1OCC(O)CN1CCCC1 (stereo not drawn) [SM2]
[13]
  MBC: 200 µM (≈ 86.9 µg/mL)
  MIC: 100 µM (≈ 43.5 µg/mL)
[14]
  SMs intracellular APEC clearance concentration: >200 µM
[15]
  MBC: 250 µM (≈ 109 µg/mL)
  MIC: 200 µM (≈ 86.9 µg/mL)
[16]
  activity against STEC O157 and O26 strains: not cidal
[17]
  SMs intracellular APEC clearance concentration: 100^a µM
[18]
  MBC: 200 µM (≈ 86.9 µg/mL)
  MIC: 100 µM (≈ 43.5 µg/mL)
[19]
  SMs intracellular APEC clearance concentration: 200^b µM
[20]
  SMs intracellular APEC clearance concentration: >200 µM
[21]
  MBC: 200 µM (≈ 86.9 µg/mL)
  MIC: 100 µM (≈ 43.5 µg/mL)
[22]
  SMs intracellular APEC clearance concentration: 200b µM
[23]; APEC O78
  MBC relative to MIC: identical to MIC
[23]; MIC/MBC
  MIC: 100 µM (≈ 43.5 µg/mL)
[23]; cell prints MIC/MBC
  MBC: 100 µM (≈ 43.5 µg/mL)
[24]
  MBC: 200 µM (≈ 86.9 µg/mL)
  MIC: 200 µM (≈ 86.9 µg/mL)
[25]
  MBEC: 50^b µM
[26]; average of liver, heart, lung and kidney, vs untreated control
  reduction of average APEC load in internal organs: 1.3 logs
[26]; liver, heart, lung and air-sacs, untreated 6.2
  cumulative lesions score: 5.4
[26]; oral gavage twice a day, 5 days, untreated mortality (58.34%) normalized to 100%
  reduction of APEC induced mortality: 42.86%
[26]; untreated control = 100%
  reduction of APEC lesions severity (%), Air-sacs (airsacculitis): 17.7%
  reduction of APEC lesions severity (%), Liver (perihepatitis): 0%
[26]; vs untreated control
  reduction of APEC load, Heart: 0.8 log CFU/g of tissues
  reduction of APEC load, Kidney: 1.8 log CFU/g of tissues
  reduction of APEC load, Liver: 1.2 log CFU/g of tissues
  reduction of APEC load, Lung: 1.5 log CFU/g of tissues
[26]; weight of live chickens before necropsy minus weight before treatment
  Body weight gain (BWG): 125.48±34.66^b
[27]
  SMs intracellular APEC clearance concentration: 200^b µM
[28]
  cytological profile (confocal, FM4-64 / SYTO-9): membrane pore formers
[29]
  MBC: 100 µM (≈ 43.5 µg/mL)
  MIC: 100 µM (≈ 43.5 µg/mL)
[30]
  SMs intracellular APEC clearance concentration: 100^a µM
[31]
  Absorbance 260: 3.71
  Absorbance 280: 2.86*
[32]
  MBC: 200 µM (≈ 86.9 µg/mL)
  MIC: 100 µM (≈ 43.5 µg/mL)
[33]
  MBC: 200 µM (≈ 86.9 µg/mL)
  MIC: 100 µM (≈ 43.5 µg/mL)
[34]
  MBC: 250 µM (≈ 109 µg/mL)
  MIC: 200 µM (≈ 86.9 µg/mL)
[35]
  SMs intracellular APEC clearance concentration: 100^a µM
[36]
  MBC: 250 µM (≈ 109 µg/mL)
  MIC: 200 µM (≈ 86.9 µg/mL)
[37]
  SMs intracellular APEC clearance concentration: 100^a µM
[38]
  MBC: 100 µM (≈ 43.5 µg/mL)
  MIC: 100 µM (≈ 43.5 µg/mL)

## CCCCCCCCCCCCCCCCn1c[n+](C)c2ccccc21.[Br-] [SM5]
[13]
  MBC: 25 µM
  MIC: 12.5 µM
[39]
  impact on chicken health and performance: no negative impact
[14]
  SMs intracellular APEC clearance concentration: 100^d µM
[15]
  MBC: 25 µM
  MIC: 12.5 µM
[17]
  SMs intracellular APEC clearance concentration: 50^c µM
[18]
  MBC: 12.5 µM
  MIC: 12.5 µM
[19]
  SMs intracellular APEC clearance concentration: 100^d µM
[20]
  SMs intracellular APEC clearance concentration: 100^d µM
[21]
  MBC: 12.5 µM
  MIC: 12.5 µM
[22]
  SMs intracellular APEC clearance concentration: 100^d µM
[23]; cell prints MIC/MBC
  MBC: 25 µM
  MIC: 12.5 µM
[24]
  MBC: 12.5 µM
  MIC: 12.5 µM
[25]
  MBEC: 25^c µM
[27]
  SMs intracellular APEC clearance concentration: 50^c µM
[28]
  cytological profile (confocal, FM4-64 / SYTO-9): membrane disruptors
[29]
  MBC: 12.5 µM
  MIC: 12.5 µM
[30]
  SMs intracellular APEC clearance concentration: 50^c µM
[31]
  Absorbance 260: 4.00*
  Absorbance 280: 2.67*
[32]
  MBC: 12.5 µM
  MIC: 12.5 µM
[33]
  MBC: 12.5 µM
  MIC: 12.5 µM
[34]
  MBC: 12.5 µM
  MIC: 12.5 µM
[35]
  SMs intracellular APEC clearance concentration: 50^c µM
[36]
  MBC: 25 µM
  MIC: 12.5 µM
[37]
  SMs intracellular APEC clearance concentration: 50^c µM
[38]
  MBC: 12.5 µM
  MIC: 12.5 µM

## CN(C)[C@@H]1C(=O)C(C(N)=O)=C(O)[C@@]2(O)C(=O)C3=C(O)c4c(O)cccc4[C@@](C)(O)[C@H]3C[C@@H]12 [Tetracycline]
[1]
  MIC: 1 µg/mL (≈ 2.25 µM)
[2]
  MIC: >64 (R) µg/mL
[3]
  MIC: >64 (R) µg/mL
[4]
  MIC: >64 (R) µg/mL
[5]
  MIC: >64 (R) µg/mL
[6]
  MIC: >64 (R) µg/mL
[7]
  MIC: 1 µg/mL (≈ 2.25 µM)
[8]
  MIC: 16 (R) µg/mL
[9]
  MIC: >64 (R) µg/mL
[10]
  MIC: 32 (R) µg/mL
[11]
  MIC: 2 µg/mL (≈ 4.5 µM)
[12]
  MIC: >64 (R) µg/mL

## Colistin
[1]
  MIC: 0.5 µg/mL
[2]
  MIC: 1 µg/mL
[3]
  MIC: 0.5 µg/mL
[4]
  MIC: 0.5 µg/mL
[5]
  MIC: 1 µg/mL
[6]
  MIC: 0.5 µg/mL
[7]
  MIC: 1 µg/mL
[8]
  MIC: 4 (R) µg/mL
[9]
  MIC: 4 (R) µg/mL
[10]
  MIC: 0.25 µg/mL
[11]
  MIC: 1 µg/mL
[12]
  MIC: 1 µg/mL
